Assay results: patent publication US11730712B2, “Functionalized long-chain hydrocarbon mono- and di-carboxylic acids and derivatives thereof, and their use for the prevention or treatment of disease” (ESPERVITA THERAPEUTICS, INC., priority 2021, dated 2023)

Tested on: C57BL6/J mice
Assay: Indirect calorimetry (CLAMS) in fructose-fed C57BL6 mice
Assay type: in vivo, mouse
Details: 100 mg/kg oral gavage, refed mice with RER >1
Experimental: Materials and Methods. All experiments were carried out using the methods approved by the Animal Research Ethics Board at McMaster University, Canada (Steinberg Laboratory Animal Utilization Protocol #16-12-42). 8-Week-old male C57BL6/J mice were ordered from Jackson Laboratory, Bar Harbor, Me. and housed at the McMaster University Central Animal Facility. Animals were housed in the ventilated cages racks system and provided with ad libitum access to normal chow diet (Teklad 8640 22/5 rodent diet, procured from Envigo, Mississauga ON) and water supplemented with fructose (30% weight/volume, made fresh weekly) for at least 2-weeks before testing commenced. […] Data were analyzed using one-way analyses of variance followed by a Tukey's multiple comparisons post hoc test where appropriate. […]
Experimental and Results. Respiratory Exchange Ratio (RER) and related metabolic parameters were measured using the Comprehensive Lab Animal Monitoring System (CLAMS, Columbus Instruments, Columbus, Ohio). […] RER was monitored and those animals with RER values >1 were administered either vehicle (1.5% Carboxymethyl cellulose and 0.2% Tween 20) alone or vehicle containing Compound I-1 or Compound I-32 at a dose of 100 mg/kg via oral gavage. Animals remained in the metabolic cages and RER, activity level, locomotor activity, and food intake were monitored for 24 hours. […]

Structure (SMILES)	Respiratory Exchange Ratio (RER) compared to vehicle treated group
CC(C)(CCCCc1ccc(CCCCC(C)(C)C(=O)O)cc1)C(=O)O [Compound I-1, 6-[4-(5-carboxy-5-methylhexyl)-phenyl]-2,2-dimethylhexanoic acid]	significant reduction in the RER
CC(C)(CCCCc1cccc(CCCCC(C)(C)C(=O)O)c1)C(=O)O [Compound I-32, 6-[3-(5-carboxy-5-methylhexyl)-phenyl]-2,2-dimethylhexanoic acid]	significant reduction in the RER
